According to ChEMBL document CHEMBL3217639, “Property based optimisation of glucokinase activators discovery of the phase IIb clinical candidate AZD1656” (Medchemcomm, 2012):
≈ marks a conversion by molar mass, not a printed value.

Key:
[1] = Crystalline solubility of the compound; format: physicochemical
[2] = Lipophilicity, log D of the compound; format: physicochemical; details: octanol/water
Hexokinase-4 = molecular target: T1, Hexokinase-4 (Homo sapiens, UniProt P35557); experiment: […] of recombinant human pancreatic glucokinase by G-6-P dehydrogenase assay
T1 sequence (P35557 whole entry): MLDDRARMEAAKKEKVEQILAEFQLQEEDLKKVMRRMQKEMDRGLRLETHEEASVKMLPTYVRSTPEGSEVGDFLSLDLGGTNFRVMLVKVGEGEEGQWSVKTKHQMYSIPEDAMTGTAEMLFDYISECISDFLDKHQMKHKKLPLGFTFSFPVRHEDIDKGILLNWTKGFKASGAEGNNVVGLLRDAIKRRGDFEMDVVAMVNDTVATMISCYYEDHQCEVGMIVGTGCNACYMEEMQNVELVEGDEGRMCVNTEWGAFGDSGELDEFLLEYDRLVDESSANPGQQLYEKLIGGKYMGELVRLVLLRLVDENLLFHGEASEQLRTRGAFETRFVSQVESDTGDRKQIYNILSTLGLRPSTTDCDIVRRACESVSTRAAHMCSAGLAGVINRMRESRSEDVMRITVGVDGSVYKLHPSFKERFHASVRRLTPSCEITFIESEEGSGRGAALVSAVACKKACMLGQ

[3] = Apparent permeability from apical to basolateral side in MDCK cells expressing human MDR1; format: ADME, cell-based, Canis lupus familiaris; details: dog
Salmonella typhimurium = experiment: Genotoxicity in Salmonella typhimurium by Ames test; format: toxicity, organism-based; details: salmonella enterica subsp. enterica serovar typhimurium
[4] = molecular target: Voltage-gated inwardly rectifying potassium channel KCNH2 (Homo sapiens, UniProt Q12809)
[5] = Clearance in rat; format: ADME, organism-based; details: in vivo
[6] = Volume of distribution at steady state in dog; format: ADME, organism-based, Canis lupus familiaris; details: in vivo, read-out: Vdss
Rattus norvegicus [7] = experiment: Antidiabetic activity in high fat fed Zucker rat assessed as reduction of AUC of plasma glucose level at 1 mg/kg by oral glucose tolerance test; format: functional; set-up: scale not given: the % may be the effect or the level left
[8] = Volume of distribution at steady state in rat; format: ADME, organism-based; details: in vivo, read-out: Vdss
[9] = Oral bioavailability in rat; format: ADME, organism-based; details: in vivo
Rattus norvegicus [10] = organism: Rattus norvegicus; experiment: Unbound clearance in rat; format: ADME, organism-based; details: in vivo
Canis familiaris = organism: Canis familiaris; experiment: Unbound clearance in dog; format: ADME, organism-based, Canis lupus familiaris; details: in vivo
[11] = Clearance in dog; format: ADME, organism-based, Canis lupus familiaris; details: in vivo
[12] = Oral bioavailability in dog; format: ADME, organism-based, Canis lupus familiaris; details: in vivo
Rattus norvegicus [13] = experiment: Antidiabetic activity in high fat fed Zucker rat assessed as reduction of AUC of plasma glucose level at 3 mg/kg by oral glucose tolerance test; format: functional; set-up: scale not given: the % may be the effect or the level left

Chain of Voltage-gated inwardly rectifying potassium channel KCNH2 (Q12809 whole entry): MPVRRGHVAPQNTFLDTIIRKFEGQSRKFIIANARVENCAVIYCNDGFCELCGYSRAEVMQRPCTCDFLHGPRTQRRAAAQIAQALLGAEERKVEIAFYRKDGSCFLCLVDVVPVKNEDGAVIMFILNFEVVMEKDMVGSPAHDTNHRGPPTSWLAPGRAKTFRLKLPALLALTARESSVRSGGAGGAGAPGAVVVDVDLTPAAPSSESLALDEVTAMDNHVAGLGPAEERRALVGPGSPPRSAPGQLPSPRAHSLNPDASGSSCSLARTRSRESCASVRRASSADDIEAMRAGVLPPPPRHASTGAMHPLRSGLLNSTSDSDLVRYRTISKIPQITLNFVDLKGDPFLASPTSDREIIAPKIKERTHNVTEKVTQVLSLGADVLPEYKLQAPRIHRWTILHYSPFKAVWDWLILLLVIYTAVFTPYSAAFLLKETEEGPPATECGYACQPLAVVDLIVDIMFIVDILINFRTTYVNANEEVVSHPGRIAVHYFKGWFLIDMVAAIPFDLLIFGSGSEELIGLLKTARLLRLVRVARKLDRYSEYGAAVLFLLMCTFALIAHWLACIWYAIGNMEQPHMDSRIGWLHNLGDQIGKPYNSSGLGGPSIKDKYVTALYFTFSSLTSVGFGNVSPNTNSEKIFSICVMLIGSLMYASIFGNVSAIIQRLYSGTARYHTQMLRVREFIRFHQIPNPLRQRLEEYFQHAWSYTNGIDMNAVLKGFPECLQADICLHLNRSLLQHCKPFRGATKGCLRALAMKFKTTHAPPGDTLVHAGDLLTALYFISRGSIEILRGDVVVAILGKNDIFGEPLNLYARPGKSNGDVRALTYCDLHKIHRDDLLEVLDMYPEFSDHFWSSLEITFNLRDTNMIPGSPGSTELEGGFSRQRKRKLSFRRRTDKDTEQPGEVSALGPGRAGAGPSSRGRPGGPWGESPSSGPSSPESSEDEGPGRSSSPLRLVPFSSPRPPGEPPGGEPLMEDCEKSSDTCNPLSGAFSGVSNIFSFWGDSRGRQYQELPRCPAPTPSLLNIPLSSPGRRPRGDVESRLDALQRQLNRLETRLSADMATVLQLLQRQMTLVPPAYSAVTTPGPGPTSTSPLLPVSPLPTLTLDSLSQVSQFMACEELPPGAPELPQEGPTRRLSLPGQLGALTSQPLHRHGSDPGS

solubility thermodynamic [1] [µM]	logD [2]	EC50 (Hexokinase-4) [nM]	Papp A→B [3] [×10⁻⁶ cm/s]	Structure (SMILES)	IC50 [4] [nM]	further results
490 (≈ 228 µg/mL)	2.5	37	12	COC[C@H](C)Oc1cc(Oc2ccc(C(=O)N3CCC3)cc2)cc(C(=O)Nc2ccn(C)n2)c1	–	–
17 (≈ 7.97 µg/mL)	2.7	35	5.2	Cc1nsc(NC(=O)c2cc(Oc3ccc(C(=O)N4CCC4)cc3)cc(O[C@@H](C)CO)c2)n1	11000	–
–	–	370	–	COC[C@H](C)Oc1cc(Oc2ccc(C(=O)N3CCC3)cn2)cc(C(=O)Nc2cnc(C)cn2)c1	–	–
280 (≈ 130 µg/mL)	2.4	31	1.6	CCn1ccc(NC(=O)c2cc(Oc3ccc(C(=O)N4CCC4)cc3)cc(O[C@@H](C)CO)c2)n1	–	–
350 (≈ 158 µg/mL)	–	–	1.2	C[C@@H](CO)Oc1cc(Oc2ccc(C(=O)N3CCC3)cc2)cc(C(=O)Nc2ccn(C)n2)c1	–	Activity (Rattus norvegicus [13]): 24%; CL free (Rattus norvegicus [10]): 480 mL/min/kg; CL free (Canis familiaris): 61 mL/min/kg
44 (≈ 21.1 µg/mL)	2.8	73	–	CC(C)n1ccc(NC(=O)c2cc(Oc3ccc(C(=O)N4CCC4)cc3)cc(O[C@@H](C)CO)c2)n1	31000	–
30 (≈ 14.3 µg/mL)	2.9	73	29	COC[C@H](C)Oc1cc(Oc2ccc(C(=O)N3CCC3)cc2)cc(C(=O)Nc2cnc(C)cn2)c1	–	–
17 (≈ 7.86 µg/mL)	2.4	61	4.1	Cc1cnc(NC(=O)c2cc(Oc3ccc(C(=O)N4CCC4)cc3)cc(O[C@@H](C)CO)c2)cn1	38000	–
9 (≈ 4.08 µg/mL)	3.1	32	–	C[C@@H](CO)Oc1cc(Oc2ccc(C(=O)N3CCC3)cc2)cc(C(=O)Nc2nccs2)c1	9000	–
21 (≈ 10 µg/mL)	2.9	36	18	COC[C@H](C)Oc1cc(Oc2ccc(C(=O)N3CCC3)nc2)cc(C(=O)Nc2cnc(C)cn2)c1	40000	–
125 (≈ 54.3 µg/mL)	3.3	110	–	CC(C)Oc1cc(Oc2ccc(C(=O)N3CCC3)cc2)cc(C(=O)Nc2ccn(C)n2)c1	27000	–
670 (≈ 292 µg/mL)	2	53	0.8	C[C@@H](CO)Oc1cc(Oc2ccc(C(=O)N3CCC3)cc2)cc(C(=O)Nc2cc[nH]n2)c1	> 100000	–

The next lines start with the compound.

Structure (SMILES)	solubility thermodynamic [1] [µM]	logD [2]	EC50 (Hexokinase-4) [nM]	Papp A→B [3] [×10⁻⁶ cm/s]	IC50 [4] [nM]	further results
Cc1nsc(N)n1	–	–	–	–	–	Activity (Salmonella typhimurium): Non-toxic
COC[C@H](C)Oc1cc(Oc2cnc(C(=O)N3CCC3)cn2)cc(C(=O)Nc2cnc(C)cn2)c1 [AZD-1656]	280 (≈ 134 µg/mL)	2.4	61	35	> 100000	clearance [5]: 16 mL/min/kg; Vd [6]: 1.5 L/kg; Activity (Rattus norvegicus [7]): 43%; Vd [8]: 0.5 L/kg; bioavailability [9]: 100%; CL free (Rattus norvegicus [10]): 310 mL/min/kg; CL free (Canis familiaris): 50 mL/min/kg; clearance [11]: 8.1 mL/min/kg; bioavailability [12]: 100%
Nc1cc[nH]n1	–	–	–	–	–	Activity (Salmonella typhimurium): Non-toxic
COC[C@H](C)Oc1cc(Oc2ncc(C(=O)N3CCC3)cc2Cl)cc(C(=O)Nc2cnc(C)cn2)c1	8 (≈ 4.1 µg/mL)	2.8	60	–	–	–
Nc1nccs1 [AMINOTHIAZOLE]	–	–	–	–	–	Activity (Salmonella typhimurium): Non-toxic
Cn1ccc(N)n1	–	–	–	–	–	Activity (Salmonella typhimurium): Toxic
CC(C)n1ccc(N)n1	–	–	–	–	–	Activity (Salmonella typhimurium): Toxic
CCn1ccc(N)n1	–	–	–	–	–	Activity (Salmonella typhimurium): Toxic
Cn1ccc(NC(=O)c2cc(Oc3ccc(C(=O)N4CCC4)cc3)cc(O[C@H]3CCOC3)c2)n1	180 (≈ 83.3 µg/mL)	2.2	70	6.4	–	–
Cn1ccc(NC(=O)c2cc(Oc3ccc(C(=O)N4CCC4)cc3)cc(OC(CF)CF)c2)n1	11 (≈ 5.18 µg/mL)	2.6	47	7	–	–
Cc1cnc(N)cn1	–	–	–	–	–	Activity (Salmonella typhimurium): Non-toxic
Cn1ccc(NC(=O)c2cc(Oc3ccc(C(=O)N4CCC4)cc3)cc(OC3CCOCC3)c2)n1	170 (≈ 81 µg/mL)	–	170	–	–	–
